In ChEMBL document CHEMBL1201862, “PubChem BioAssay data set” (2004):
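Cells were grown in 96-well plates and exposed to each compound for 48 hours at five concentrations; endpoints were interpolated linearly between bracketing concentrations, or set to the highest concentration if not reached. Here, GI50 denotes the concentration required for 50% inhibition of growth.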 The source made the active and inactive calls. Cut-off read from the data, not from the text of the source: active = GI50 up to about 1.1 µM and inactive = higher.

Key:
Assay in all cases: growth of human tumour cells (NCI), 48 h
[1] = test system: Hs-578T
[2] = test system: NCI-H23
[3] = test system: NCI-H226
[4] = test system: HOP-62
[5] = test system: SN12C
[6] = test system: UACC-62
[7] = test system: UACC-257
[8] = test system: LOX IMVI
[9] = test system: UO-31
[10] = test system: TK-10
[11] = test system: T47D
[12] = test system: A549
[13] = test system: M14
[14] = test system: A498
[15] = test system: HCC 2998
[16] = test system: SK-MEL-28
[17] = test system: CCRF-CEM
[18] = test system: CAKI-1
[19] = test system: SK-OV-3
[20] = test system: HOP-92

Measured: GI50

CN1CCC/C1=C1/C(=O)N(c2ccccc2)N=C1c1ccc[nH]1
inactive: [1] > 100 µM | [2] > 100 µM | [3] > 100 µM | [4] > 100 µM | [5] > 100 µM | [6] > 100 µM | [7] > 100 µM | [8] > 100 µM | [9] > 100 µM | [10] > 100 µM | [11] > 100 µM | [12] > 100 µM | [13] > 100 µM | [14] > 100 µM | [15] > 100 µM | [16] > 100 µM | [17] > 100 µM | [18] > 100 µM

N#C/C(=C\c1ccc2ccccc2c1)C(=O)c1ccccc1
inactive: [1] 22.2 µM | [2] > 57.4 µM | [3] > 100 µM | [19] > 46.8 µM | [4] 20.8 µM | [5] > 66.5 µM | [6] > 57 µM | [7] 82 µM | [8] 26.1 µM | [9] > 86.7 µM | [10] > 100 µM | [11] 36 µM | [12] > 100 µM | [13] > 64.9 µM | [14] > 85.7 µM | [15] > 100 µM | [16] > 47 µM | [17] 23.8 µM | [18] > 100 µM

CC(=O)/C=C(/C=N/O)c1ccccc1
inactive: [1] > 100 µM | [2] > 100 µM | [3] > 100 µM | [19] > 100 µM | [4] > 100 µM | [5] > 100 µM | [6] > 100 µM | [7] > 100 µM | [8] > 100 µM | [9] > 100 µM | [10] > 100 µM | [11] > 100 µM | [12] > 100 µM | [13] > 100 µM | [15] > 100 µM | [16] > 100 µM | [17] > 100 µM | [18] > 100 µM

Cc1csc2c1-n1cccc1C2=O
inactive: [1] > 100 µM | [3] > 100 µM | [19] > 100 µM | [4] 53 µM | [5] > 100 µM | [6] > 100 µM | [7] > 100 µM | [8] > 100 µM | [9] 43.3 µM | [10] > 100 µM | [11] > 100 µM | [12] > 100 µM | [13] > 100 µM | [14] 36 µM | [15] > 100 µM | [16] > 100 µM | [17] > 100 µM | [18] 65.8 µM

CCOC(=O)C(C)c1nc2cc(N3CCN(C)CC3)c(F)cc2[nH]c1=O (stereo not given)
inactive: [1] > 100 µM | [2] > 100 µM | [3] > 100 µM | [19] > 100 µM | [4] > 100 µM | [5] > 100 µM | [6] > 100 µM | [7] > 100 µM | [9] > 100 µM | [20] > 100 µM | [11] > 100 µM | [12] > 100 µM | [13] > 100 µM | [14] > 100 µM | [16] > 100 µM | [17] > 100 µM | [18] > 100 µM

N#CCc1nc(-c2cc3ccc(O)cc3oc2=O)cs1
inactive: [1] 66.1 µM | [3] 53.6 µM | [19] 73.6 µM | [4] > 100 µM | [5] 54.8 µM | [6] 22.6 µM | [7] 41.7 µM | [8] 46.2 µM | [9] 37.2 µM | [10] > 100 µM | [20] > 100 µM | [11] 36.7 µM | [12] 55 µM | [13] 46.5 µM | [15] 87.1 µM | [16] 35.2 µM | [17] 38.7 µM | [18] > 100 µM

O=C(N/N=C/c1ccc(Cl)cc1)c1ccccc1Nc1ccccc1C(=O)N/N=C/c1ccc(Cl)cc1
inactive: [2] > 100 µM | [3] > 100 µM | [19] > 100 µM | [4] > 100 µM | [5] > 100 µM | [6] > 100 µM | [7] > 100 µM | [8] > 100 µM | [9] > 100 µM | [10] > 100 µM | [20] > 100 µM | [11] > 100 µM | [12] 88.7 µM | [13] 33 µM | [14] > 100 µM | [15] > 100 µM | [16] > 100 µM | [17] > 100 µM | [18] > 100 µM

CCOC(=O)c1c(NC(=O)c2ccc(Br)cc2)sc2c1CCCC2
inactive: [1] 75.5 µM | [2] > 100 µM | [3] > 100 µM | [4] > 100 µM | [5] > 100 µM | [6] > 100 µM | [7] > 100 µM | [9] > 100 µM | [10] > 100 µM | [11] > 100 µM | [12] > 100 µM | [13] > 100 µM | [14] 25.1 µM | [16] > 100 µM | [17] > 100 µM | [18] > 100 µM

Cc1c2c(cc3c1C(=O)C(O)=C([C@@H](C)CO)C3=O)C(C)(C)CCC2
inactive: [1] 16.7 µM | [2] 17.7 µM | [3] 33.8 µM | [19] 32.7 µM | [4] 22.4 µM | [5] 27.7 µM | [6] 28.2 µM | [7] 35.6 µM | [8] 28.3 µM | [9] 17.5 µM | [10] 42.4 µM | [20] 35 µM | [11] 32.8 µM | [12] 29.8 µM | [13] 23.2 µM | [14] 25.6 µM | [16] 28 µM | [17] 10.1 µM | [18] 33.4 µM

CCOC(=O)Cn1nc2ccc(Nc3c(C)[n+]([O-])c4cc(F)c(OCC)cc4[n+]3[O-])cc2n1
inactive: [1] 40.7 µM | [2] > 100 µM | [3] > 100 µM | [19] 56.4 µM | [4] 33 µM | [7] > 100 µM | [8] > 100 µM | [9] > 100 µM | [10] 27.5 µM | [20] 18.2 µM | [11] > 100 µM | [13] > 100 µM | [14] > 100 µM | [16] > 100 µM | [17] > 100 µM | [18] > 100 µM

O=C(O)c1cc(CCc2cc(O)ccc2O)ccc1O
inactive: [1] > 100 µM | [2] > 100 µM | [3] > 100 µM | [19] > 100 µM | [4] > 100 µM | [5] > 100 µM | [6] > 100 µM | [7] > 100 µM | [8] 32.1 µM | [9] > 100 µM | [10] > 100 µM | [20] > 100 µM | [11] > 100 µM | [12] > 100 µM | [13] > 100 µM | [14] > 100 µM | [16] > 100 µM | [17] 26.9 µM | [18] > 100 µM

O=C(c1cccnc1)N1N=C(c2ccc(Cl)cc2)CC1(O)c1cc(F)c(Cl)cc1Cl (stereo not given)
inactive: [1] 29.4 µM | [2] 18.5 µM | [3] 11.6 µM | [19] 30.2 µM | [4] 21.5 µM | [5] 14.1 µM | [7] 18.5 µM | [8] 15.1 µM | [9] 15.9 µM | [10] 41.1 µM | [20] 17.5 µM | [11] 2.39 µM | [12] 24.9 µM | [13] 22 µM | [16] 23.6 µM | [17] 13.3 µM | [18] 28.5 µM

CCC(C)(C)c1ccc(OCCCCNC(=O)c2ccc3ccccc3c2O)c(C(C)(C)CC)c1
inactive: [1] 31.5 µM | [2] 23.7 µM | [3] 12.6 µM | [19] 74 µM | [4] 33 µM | [5] 34.6 µM | [6] 16.3 µM | [7] 28 µM | [9] 29.3 µM | [10] 13.4 µM | [11] 31 µM | [12] 27.2 µM | [13] 48.9 µM | [14] 29.7 µM | [15] 38.3 µM | [16] 13.6 µM | [17] 9.68 µM | [18] 23 µM

O=C1C(NCCc2cc(Cl)c(O)c(Cl)c2)=CC(=O)c2[nH]cnc21
inactive: [1] 80 µM | [2] 17.9 µM | [4] 44 µM | [5] 30 µM | [6] 18.8 µM | [7] 26 µM | [8] 35.2 µM | [9] > 100 µM | [10] 51.8 µM | [11] 21.7 µM | [12] 33.9 µM | [13] 10.7 µM | [14] 75.7 µM | [15] 38.8 µM | [16] 28 µM

COc1ccc(N2C(=O)C3ON(C(C(N)=O)c4ccccc4)C(c4ccc(-c5ccccc5)cc4)C3C2=O)cc1 (stereo not given)
inactive: [1] > 50 µM | [2] > 50 µM | [3] > 50 µM | [19] > 50 µM | [4] > 50 µM | [5] > 50 µM | [6] > 50 µM | [7] > 50 µM | [8] 36.5 µM | [9] > 50 µM | [10] > 50 µM | [11] > 50 µM | [12] > 50 µM | [13] 48.4 µM | [14] > 50 µM | [16] > 50 µM | [17] 10.2 µM | [18] > 50 µM
